The source of these data is patent publication US12011444B2, “N-substituted indole derivatives as PGE2 receptor modulators” (Idorsia Pharmaceuticals Ltd, priority 2015, dated 2024).

pIC50: −log10 of the molar value.

In one experiment the target is EP2 (Homo sapiens (Human), UniProt P43116).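 Further: antagonism of PGE2-stimulated cAMP accumulation in SF295 human glioblastoma cells with endogenous EP2, cAMP read by HTRF, expressed relative to DMSO control.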
In the next experiment the target is EP4 (Homo sapiens (Human), UniProt P35408). In words: hEP4 cAMP assay (BT549 breast cancer cells, HTRF cAMP). It is filed as cell-based. Conditions: antagonistic activity; mean values where measured multiple times. On the procedure:
Plate is pre-incubated 45 minutes at room temperature. Subsequently, 2.5 microliters of PGE2 (final conc. 6 nM) are transferred into the assay plate. Plate is incubated 30 minutes at room temperature.

EP2, sequence (P43116 whole entry): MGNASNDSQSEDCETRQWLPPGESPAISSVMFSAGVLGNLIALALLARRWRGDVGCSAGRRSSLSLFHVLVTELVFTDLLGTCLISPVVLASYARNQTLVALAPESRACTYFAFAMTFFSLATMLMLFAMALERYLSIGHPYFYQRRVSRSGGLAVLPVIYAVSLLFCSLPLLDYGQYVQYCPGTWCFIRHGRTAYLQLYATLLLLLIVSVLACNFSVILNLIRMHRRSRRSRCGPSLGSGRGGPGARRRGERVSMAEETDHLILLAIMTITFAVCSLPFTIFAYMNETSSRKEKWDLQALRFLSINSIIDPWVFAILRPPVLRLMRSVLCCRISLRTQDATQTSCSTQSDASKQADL
EP4, sequence (P35408 whole entry): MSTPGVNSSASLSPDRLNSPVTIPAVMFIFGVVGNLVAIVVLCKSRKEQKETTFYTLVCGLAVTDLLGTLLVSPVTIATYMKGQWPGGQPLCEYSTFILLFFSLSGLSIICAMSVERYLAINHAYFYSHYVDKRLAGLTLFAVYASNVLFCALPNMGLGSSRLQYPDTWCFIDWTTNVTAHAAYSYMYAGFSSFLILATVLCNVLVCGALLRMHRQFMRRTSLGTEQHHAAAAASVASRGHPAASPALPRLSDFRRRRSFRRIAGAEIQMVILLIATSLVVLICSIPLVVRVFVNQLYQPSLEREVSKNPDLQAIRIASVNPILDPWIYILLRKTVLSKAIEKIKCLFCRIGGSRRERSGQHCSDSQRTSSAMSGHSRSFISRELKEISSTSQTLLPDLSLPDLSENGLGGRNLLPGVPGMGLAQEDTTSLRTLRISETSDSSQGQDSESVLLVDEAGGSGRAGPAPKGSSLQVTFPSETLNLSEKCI
From the text for EP2: Human tumor cell lines expressing endogenously either EP4 or EP2 are used and cAMP accumulation in cells upon PGE2 stimulation is monitored. SF295 glioblastoma cells express high endogenous EP2 and no EP4, whereas BT549 breast cancer cells, express high endogenous EP4 levels and very low EP2 levels.
As a detection method for cAMP the HTRF (homogeneous time resolved fluorescence) Cisbio kit (HTRF cAMP dynamic 2 kit 20′000 tests Cisbio Cat. #62AM4PEC) was used, which is based on a competitive immunoassay using a Cryptate-labeled anti-cAMP antibody and d2-labeled cAMP. Native cAMP produced by cells or unlabeled cAMP (for the standard curve) compete with exogenously added d2-labeled cAMP (acceptor) for binding to monoclonal anti-cAMP-Eu3+Cryptate (donor). A FRET signal (Fluorescence Resonance Energy Transfer) is obtained only if the labeled anti-cAMP antibody binds the d2 labelled cAMP, thus the specific signal (i.e. energy transfer) is inversely proportional to the concentration of cAMP in the standard or sample.
The SF295 cells (NCI/No. 0503170) are detached from culture dishes with a cell dissociation buffer (Invitrogen, 13151-014), and collected in growing medium (GM: RPM11640 (Invitrogen 21875)/10% FCS, 1% Penicilin/streptomycin). Cells are counted washed and resuspended in assay buffer (AB; HBSS, 20 mM HEPES, 0.2% BSA; 2 mM IBMX). 4,000 cells in 5 μl of AB are seeded per well of a small volume 384 well plate (black with flat bottom, Greiner 784076).
PGE2 (Cayman 14010, stock solution: 75 μM in DMSO) is used as agonist at 75 nM final concentration, corresponding to EC80.
Two point five microliters of diluted compounds are transferred into the assay plate. Plate is pre-incubated 45 minutes at room temperature. Subsequently, 2.5 microliters of PGE2 (final conc. 75 nM) are transferred into the assay plate. Plate is incubated 30 minutes at room temperature. Five μl of each donor (anti-cAMP cryptate) and acceptor (cAMP-d2) are added and the plate is incubated another hour at room temperature in the dark and then read using a BMG LABTECH PHERAstar reader (Excitation: 337 nm, Emission: 620 and 665 nm).
The obtained Delta F (fluorescence) values (665 nm/620 nM) are converted into % cAMP values using the measurements of the cAMP calibrator provided in the kit. For each compound concentration the percentage of cAMP compared to DMSO control value as average±STDEV (each concentration is measured in duplicate) is calculated.
IC50 values and curves are generated with XLfit software (IDBS) using Dose-Response One Site model 203. When compounds were measured multiple times, mean values are given.

On to `CCCOc1cc(-c2cc(NCCn3c(C)cc4c(C)cc(F)c(F)c43)ncn2)cc(F)c1C(=O)O` [compound 627], for which the pIC50 at EP2 was 7.32; on EP4, 6.71.
Take `COc1cc(Cl)cc2c1cc(C)n2CCNc1cc(-c2ccc(-c3noc(=O)[nH]3)cc2)ncn1` [compound 679, 3-(4-{6-[2-(6-Chloro-4-methoxy-2-methyl-indol-1-yl)-ethylamino]-pyrimidin-4-yl}-phenyl)-4H-[1,2,4]oxadiazol-5-one]: the figures for the pIC50 at EP2 and at EP4 were 7.70 and 7.02, respectively.
Regarding `CCCc1cc(-c2cc(NCCn3c(C)cc4cc(OC)cc(F)c43)ncn2)cc(F)c1C(=O)O` [compound 516], the pIC50 on EP2 was 6.49; at EP4, 6.35.
As for `Cc1cc2c(F)c(F)cc(Cl)c2n1CCNc1cc(-c2ccc(C(=O)O)c(SC(C)C)c2)ncn1` [compound 500], the negative logarithm of the IC50 (pIC50) is 7.77 on EP2 and 6.09 on EP4.
Turning to `COc1cc(F)cc2c1cc(C#N)n2CCNc1cc(-c2ccc(C(=O)O)c(CC(C)C)c2)ncn1` [compound 603], the pIC50 on EP2 was 7.39; against EP4, 7.82.
Turning to `CCCOc1cc(-c2cc(NCCn3c(C)cc4c(OC)cc(F)cc43)ncn2)sc1C(=O)O` [compound 674], the pIC50 against EP2 is 8.70; against EP4, 8.22.
For `CCOc1cc(-c2cc(NCCn3c(C)cc4c(C)cc(F)cc43)ncn2)cc(Cl)c1C(=O)O` [compound 432], the pIC50 on EP2 was 7.68; against EP4, 6.93.
The matching figures for `CCNc1cc(-c2cc(NCCn3c(C)cc4c(OC)cccc43)ncn2)ccc1-c1nnn[nH]1` [compound 667, {6-[3-Ethylamino-4-(1H-tetrazol-5-yl)-phenyl]-pyrimidin-4-yl}-[2-(4-methoxy-2-methyl-indol-1-yl)-ethyl]-amine]: 8.70 and 7.77.
The matching figures for `CCOc1cc(-c2cc(NCCn3c(C)cc4cc(C)cc(F)c43)ncn2)cc(F)c1C(=O)O` [compound 436]: 7.34 and 6.10.
As for `COc1cc(F)cc2c1cc(C)n2CCNc1cc(-c2ccc(-c3nccs3)cc2)ncn1` [Example 751, [2-(6-Fluoro-4-methoxy-2-methyl-indol-1-yl)-ethyl]-[6-(4-thiazol-2-yl-phenyl)-pyrimidin-4-yl]-amine], the negative logarithm of the IC50 (pIC50) at EP2 was 8.10; against EP4, 6.98.
For the compound `COc1cccc2c1cc(C)n2CCNc1cc(-c2ccc(-c3csc(C)n3)cc2)ncn1` [compound 566], the negative logarithm of the IC50 (pIC50) on EP2 was 7.34; at EP4 it was 6.27.
For `Cc1cc2c(F)c(F)cc(F)c2n1CCNc1cc(-c2ccc(C(=O)O)c(CC(C)C)c2)ncn1` [compound 506], the pIC50 on EP2 was 7.92; against EP4, 6.95.
With `COc1c(F)cc(Cl)c2c1cc(C)n2CCNc1cc(-c2ccc3c(=O)[nH][nH]c3c2)ncn1` [Example 782, 6-{6-[2-(7-Chloro-5-fluoro-4-methoxy-2-methyl-indol-1-yl)-ethylamino]-pyrimidin-4-yl}-1,2-dihydro-indazol-3-one], the pIC50 was 7.41 on EP2 and 7.04 against EP4.
The matching figures for `COc1ccc(F)c2c1cc(C)n2CCNc1cc(-c2ccc(-c3ccno3)cc2)ncn1` [compound 744, [2-(7-Fluoro-4-methoxy-2-methyl-indol-1-yl)-ethyl]-[6-(4-isoxazol-5-yl-phenyl)-pyrimidin-4-yl]-amine]: 8.10 and 6.60.
The matching figures for `Cc1cnoc1-c1ccc(-c2cc(NCCn3c(C)cc4c(C)cc(F)cc43)ncn2)cc1` [compound 734]: 7.02 and 6.33.
As for `Cc1nc(-c2ccc(-c3cc(NCCn4c(C)cc5c(C)cc(F)c(F)c54)ncn3)cc2)c[nH]1` [compound 575], the results for the pIC50 on EP2 and against EP4 were 7.66 and 7.28, respectively.
For `CCCOc1cc(-c2cc(NCCn3c(C)cc4c(OC)cc(F)cc43)ncn2)cc(Cl)c1C(=O)O` [compound 607], the pIC50 against EP2 was 7.60; against EP4 it was 6.95.
On to `Cc1nc2cc(-c3cc(NCCn4c(C)cc5c(C)ccc(F)c54)ncn3)ccc2o1` [compound 686], for which the pIC50 was 6.62 against EP2 and 6.07 against EP4.
Turning to `COc1cc(F)cc2c1cc(C)n2CCNc1cc(-c2ccc(-c3cc(C)no3)cc2)ncn1` [compound 715, [2-(6-Fluoro-4-methoxy-2-methyl-indol-1-yl)-ethyl]-{6-[4-(3-methyl-isoxazol-5-yl)-phenyl]-pyrimidin-4-yl}-amine], the negative logarithm of the IC50 (pIC50) was 7.80 at EP2 and 6.62 against EP4.
Take `CCOc1cc(-c2cc(NCCn3c(C)cc4c(OC)ccc(F)c43)ncn2)ccc1CNCC(C)C` [compound 586]: the pIC50 is 6.14 against EP2 and 6.06 on EP4.
Regarding `Cc1cc2c(Cl)cc(Cl)cc2n1CCNc1cc(-c2ccc(-c3csc(C(=O)O)n3)cc2)ncn1` [compound 550], the values for the pIC50 against EP2 and against EP4 were 7.48 and 6.24, respectively.
As for `CCCc1cc(-c2cc(NCCn3c(C)cc4c(OC)ccc(Cl)c43)ncn2)ccc1C(=O)O` [compound 442], the negative logarithm of the IC50 (pIC50) against EP2 is 7.92; against EP4, 6.63.
Regarding `Cc1cc2ccccc2n1CCNc1cc(-c2ccc(-c3nccs3)cc2)ncn1` [Example 764, [2-(2-Methyl-indol-1-yl)-ethyl]-[6-(4-thiazol-2-yl-phenyl)-pyrimidin-4-yl]-amine], the pIC50 at EP2 was 8.10; on EP4, 6.09.
Consider `Cc1cc(F)cc2c1cc(C)n2CCNc1cc(-c2ccc(-c3ncno3)cc2)ncn1` [compound 685, [2-(6-Fluoro-2,4-dimethyl-indol-1-yl)-ethyl]-[6-(4-[1,2,4]oxadiazol-5-yl-phenyl)-pyrimidin-4-yl]-amine], for which the pIC50 against EP2 was 8.22; against EP4, 6.96.
Regarding `CCNc1cc(-c2cc(NCCn3c(C)cc4ccccc43)ncn2)ccc1-c1nnn[nH]1` [compound 671, {6-[3-Ethylamino-4-(1H-tetrazol-5-yl)-phenyl]-pyrimidin-4-yl}-[2-(2-methyl-indol-1-yl)-ethyl]-amine], the negative-log IC50 (pIC50) on EP2 was 8.70; against EP4, 6.87.
With `CCNC(=O)Nc1ccc(-c2cc(NCCn3c(C)cc4c(OC)ccc(Cl)c43)ncn2)cc1OC` [compound 554], the results for the pIC50 at EP2 and against EP4 were 7.25 and 7.19, respectively.
Take `CCOc1cc(-c2cc(NCCn3c(C)cc4c(Br)cccc43)ncn2)ccc1C(=O)O` [Example 780, 4-{6-[2-(4-Bromo-2-methyl-indol-1-yl)-ethylamino]-pyrimidin-4-yl}-2-ethoxy-benzoic acid]: the negative-log IC50 (pIC50) is 8.22 at EP2 and 6.08 against EP4.
The matching figures for `CCCc1cc(-c2cc(NCCn3c(C)cc4c(C)cc(F)cc43)ncn2)cc(Cl)c1C(=O)O` [compound 412]: 7.44 and 7.10.
As to `CCOc1cc(-c2cc(NCCn3c(C)cc4c(C)ccc(F)c43)ncn2)cc(F)c1C(=O)O` [compound 435], the pIC50 on EP2 is 7.89; against EP4, 6.80.
Take `CCNc1cc(-c2cc(NCCn3c(C)cc4c(C#N)ccc(F)c43)ncn2)ccc1C(=O)O` [compound 451]: the results for the pIC50 against EP2 and against EP4 were 8.70 and 6.62, respectively.
For `COc1ccc(F)c2c1cc(C)n2CCNc1cc(-c2cc(C(F)(F)F)c(C(=O)O)s2)nc(C)n1` [compound 540], the pIC50 at EP2 is 7.74; against EP4 it was 7.64.
As for `Cc1cc(F)cc2c1cc(C)n2CCNc1cc(-c2cc(Cl)c(C(=O)O)c(OCC(F)(F)F)c2)ncn1` [compound 723], the pIC50 at EP2 was 7.43; on EP4, 6.54.
With `CCCOc1cc(-c2cc(NCCn3c(C)cc4c(C)cc(F)c(F)c43)ncn2)cc(Cl)c1C(=O)O` [compound 628], the values for the pIC50 on EP2 and at EP4 were 7.05 and 6.60, respectively.
With `COc1ccc(F)c2c1cc(C)n2CCNc1cc(-c2ccc(-c3nnc(C)o3)c(F)c2)ncn1` [compound 455], the figures for the negative logarithm of the IC50 (pIC50) on EP2 and against EP4 were 7.13 and 6.81, respectively.
Take `Cc1noc(-c2ccc(-c3cc(NCCn4c(C)cc5c(C)ccc(F)c54)ncn3)cc2)c1C(=O)O` [compound 477]: the figures for the negative-log IC50 (pIC50) against EP2 and on EP4 were 6.91 and 6.24, respectively.
`CCCCOc1cc(-c2cc(NCCn3c(C)cc4c(OC)cc(F)cc43)ncn2)sc1C(=O)O` [compound 672]: the pIC50 against EP2 is 9.00; against EP4, 8.52.
As to `CNc1nnc(-c2ccc(-c3cc(NCCn4c(C)cc5c(OC)ccc(F)c54)ncn3)cc2)s1` [compound 471, [2-(7-Fluoro-4-methoxy-2-methyl-indol-1-yl)-ethyl]-{6-[4-(5-methylamino-[1,3,4]thiadiazol-2-yl)-phenyl]-pyrimidin-4-yl}-amine], the pIC50 against EP2 was 8.70; against EP4, 7.54.
Taken in the same sequence, the figures for `COc1ccc(C)c2c1cc(C)n2CCNc1cc(-c2ccc(C(=O)O)c(CC(C)C)c2)ncn1` [compound 507] were 7.74 and 6.79.
The matching figures for `Cc1cc2ccccc2n1CCNc1cc(-c2ccc(-c3nnn[nH]3)c(O)c2)ncn1` [Example 789, 5-{6-[2-(2-Methyl-indol-1-yl)-ethylamino]-pyrimidin-4-yl}-2-(1H-tetrazol-5-yl)-phenol]: 8.22 and 6.03.
Regarding `CCCc1cc(-c2cc(NCCn3c(C)cc4c(OC)ccc(Cl)c43)ncn2)cc(Cl)c1C(=O)O` [compound 513], the negative-log IC50 (pIC50) on EP2 was 7.62; against EP4 it was 6.89.
Consider `COc1cc(F)c(F)c2c1cc(C)n2CCNc1cc(-c2ccc(-c3cc(C)no3)cc2)ncn1` [compound 717], for which the pIC50 against EP2 was 6.62; against EP4, 6.28.
Take `CCOc1cc(-c2cc(NCCn3c(C)cc4c(OC)cc(F)cc43)ncn2)cc(F)c1-c1nnn[nH]1` [compound 658]: the figures for the pIC50 at EP2 and on EP4 were 7.62 and 6.54, respectively.
For the compound `Cc1ccc(F)c2c1cc(C)n2CCNc1cc(-c2ccc(-c3n[nH]cc3C(=O)O)cc2)ncn1` [compound 456], the pIC50 was 6.63 at EP2 and 6.03 at EP4.
Regarding `Cc1cc(F)cc2c1cc(C)n2CCNc1cc(-c2ccc(-c3cncn3C)cc2)ncn1` [compound 547], the negative logarithm of the IC50 (pIC50) against EP2 is 7.20; against EP4, 6.63.

In general, pIC50 refers to −log10 of the IC50, conventionally taken in molar units. A lower pIC50 goes with a large IC50.
